Assay results: ChEMBL document CHEMBL1667750, “Synthesis and biological activity of 7H-benzo[4,5]indolo[2,3-b]-quinoxaline derivatives” (Eur J Med Chem, 2011)
The source made the active and inactive calls. No cut-off for these calls is given here.

Assays:
L929 = assay: Decrease in interferon inducing activity in VSV infected in mouse L929 cells at 1.1 uM; format: functional, cell-based
Calf thymus DNA = assay: Binding affinity to calf thymus DNA by ethidium bromide displacement assay; format: nucleic-acid assay, Bos taurus; settings: for logKa: Bos taurus
[1] = tested on: Vesicular stomatitis virus; assay: Antiviral activity against VSV infected in mouse L929 cells assessed as protection against virus-induced cytopathic effect treated 24 hrs before viral infection at 6.2 uM; format: functional
[2] = tested on: Vesicular stomatitis virus; assay: Antiviral activity against VSV infected in mouse L929 cells assessed as protection against virus-induced cytopathic effect treated immediately after viral infection at 6.2 uM; format: functional
[3] = Cytotoxicity against mouse L929 cells; format: cell-based
[4] = tested on: Vesicular stomatitis virus; assay: Antiviral activity against VSV infected in mouse L929 cells assessed as protection against virus-induced cytopathic effect treated 24 hrs before viral infection at 3 uM; format: functional
[5] = tested on: Vesicular stomatitis virus; assay: Antiviral activity against VSV infected in mouse L929 cells assessed as protection against virus-induced cytopathic effect treated immediately after viral infection at 21.3 uM; format: functional
[6] = tested on: Vesicular stomatitis virus; assay: Antiviral activity against VSV infected in mouse L929 cells assessed as protection against virus-induced cytopathic effect treated immediately after viral infection at 12.5 uM; format: functional
[7] = tested on: Vesicular stomatitis virus; assay: Antiviral activity against VSV infected in mouse L929 cells assessed as protection against virus-induced cytopathic effect treated 24 hrs before viral infection at 13 uM; format: functional
[8] = tested on: Vesicular stomatitis virus; assay: Antiviral activity against VSV infected in mouse L929 cells assessed as protection against virus-induced cytopathic effect treated immediately after viral infection at 50 uM; format: functional
[9] = tested on: Vesicular stomatitis virus; assay: Antiviral activity against VSV infected in mouse L929 cells assessed as protection against virus-induced cytopathic effect treated 24 hrs before viral infection at 3.1 uM; format: functional
[10] = tested on: Vesicular stomatitis virus; assay: Antiviral activity against VSV infected in mouse L929 cells assessed as protection against virus-induced cytopathic effect treated 24 hrs before viral infection at 53 uM; format: functional
[11] = tested on: Vesicular stomatitis virus; assay: Antiviral activity against VSV infected in mouse L929 cells assessed as protection against virus-induced cytopathic effect treated immediately after viral infection at 6.7 uM; format: functional
[12] = tested on: Vesicular stomatitis virus; assay: Antiviral activity against VSV infected in mouse L929 cells assessed as protection against virus-induced cytopathic effect treated 24 hrs before viral infection at 113 uM; format: functional
[13] = tested on: Vesicular stomatitis virus; assay: Antiviral activity against VSV infected in mouse L929 cells assessed as protection against virus-induced cytopathic effect treated immediately after viral infection at 7.1 uM; format: functional

SMILES	Activity (L929)	pIC50 (Calf thymus DNA)	logKa (Calf thymus DNA)	Emax at 6.2 µM [1] [%]	CC50 [3] [µM]	Emax at 12.5 µM [6] [%]	Emax at 13 µM [7] [%]	other results
CC1CCCCN1CCn1c2ccccc2c2nc3ccccc3nc21 (centres undefined)	Active	4.08	6.19	90				Emax at 6.2 µM [2]: 77%
CCCN(CCC)CCn1c2ccc3ccccc3c2c2nc3ccccc3nc21	Active	4.8	6.91		> 42.6			Emax at 3 µM [4]: 16%; Emax at 21.3 µM [5]: 48%
CCN(CC)CCn1c2ccccc2c2nc3ccccc3nc21	Active	3.97	6.07	90		100		
c1ccc2nc3c(nc2c1)c1ccccc1n3CCN1CCOCC1	Active	3.78	5.89		1070		85	Emax at 6.2 µM [2]: 30%
c1ccc2nc3c(nc2c1)c1ccccc1n3CCN1CCCCCC1	Active	4.06	6.16	90				Emax at 50 µM [8]: 100%
CCCCN(CC)CCn1c2ccccc2c2nc3ccccc3nc21	Active	3.91	6.01			50		Emax at 3.1 µM [9]: 50%
CC1CCCCN1CCn1c2ccc3ccccc3c2c2nc3ccccc3nc21 (centres undefined)	Active	4.73	6.83		113			Emax at 53 µM [10]: 20%; Emax at 6.7 µM [11]: 50%
CCN(CC)CCn1c2ccc3ccccc3c2c2nc3ccccc3nc21	Active	4.69	6.79		180			Emax at 113 µM [12]: 14%; Emax at 7.1 µM [13]: 56%
CC1CCN(CCn2c3ccccc3c3nc4ccccc4nc32)CC1	Active	3.88	5.98			50	90	
CCCN(CCC)CCn1c2ccccc2c2nc3ccccc3nc21	Active	3.99	6.09			75	90	
